# Values joined by “and” are separate entries in the source; they are usually repeats but may differ in a detail not shown here. Equal values may be shown once.
# Experiments:
# Details in all cases: treatment: drug + dasatinib (fixed dose, not stated); 5 days
# 769-P [1] = assay: GI50 of drug in presence of dasatinib; higher = less potent
# Experimental: (§1)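 Primary HTS combination arm: 8 RCC cell lines treated with 8 doses (up to 10 uM) of each library drug plus a fixed dose of dasatinib (dose not stated) for 5 days; viability read by CellTiter-Glo and normalised to DMSO. GI50 was fitted with XLfit, AUC is the area under the dose-response curve, and minimum viability is the lowest fraction of DMSO viability across doses.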
# 786-O [2] = assay: as above
# Experimental: as §1
# A498 [3] = assay: as above
# Experimental: as §1
# ACHN [4] = assay: as above
# Experimental: as §1
# CAKI-1 [5] = assay: as above
# Experimental: as §1
# SN12C [6] = assay: as above
# Experimental: as §1
# TK-10 [7] = assay: as above
# Experimental: as §1
# UO-31 [8] = assay: as above
# Experimental: as §1
# 769-P [9] = assay: minimum viability across doses, drug + dasatinib, relative to DMSO (fraction); higher = less growth inhibition
# Experimental: as §1
# 786-O [10] = assay: as above
# Experimental: as §1
# A498 [11] = assay: as above
# Experimental: as §1
# ACHN [12] = assay: as above
# Experimental: as §1
# CAKI-1 [13] = assay: as above
# Experimental: as §1
# SN12C [14] = assay: as above
# Experimental: as §1
# TK-10 [15] = assay: as above
# Experimental: as §1
# UO-31 [16] = assay: as above
# Experimental: as §1
# 769-P [17] = assay: AUC of dose-response viability curve, drug + dasatinib, normalised to DMSO (arbitrary (AUC of normalised viability)); higher = less growth inhibition
# Experimental: as §1
# 786-O [18] = assay: as above
# Experimental: as §1
# A498 [19] = assay: as above
# Experimental: as §1
# ACHN [20] = assay: as above
# Experimental: as §1
# CAKI-1 [21] = assay: as above
# Experimental: as §1
# SN12C [22] = assay: as above
# Experimental: as §1
# TK-10 [23] = assay: as above
# Experimental: as §1
# UO-31 [24] = assay: as above
# Experimental: as §1
SMILES,GI50 of drug (769-P [1]),GI50 of drug (786-O [2]),GI50 of drug (A498 [3]),GI50 of drug (ACHN [4]),GI50 of drug (CAKI-1 [5]),GI50 of drug (SN12C [6]),GI50 of drug (TK-10 [7]),GI50 of drug (UO-31 [8]),minimum viability across doses (769-P [9]),minimum viability across doses (786-O [10]),minimum viability across doses (A498 [11]),minimum viability across doses (ACHN [12]),minimum viability across doses (CAKI-1 [13]),minimum viability across doses (SN12C [14]),minimum viability across doses (TK-10 [15]),minimum viability across doses (UO-31 [16]),AUC of dose-response viability curve (769-P [17]),AUC of dose-response viability curve (786-O [18]),AUC of dose-response viability curve (A498 [19]),AUC of dose-response viability curve (ACHN [20]),AUC of dose-response viability curve (CAKI-1 [21]),AUC of dose-response viability curve (SN12C [22]),AUC of dose-response viability curve (TK-10 [23]),AUC of dose-response viability curve (UO-31 [24])
Oc1cccc(-c2nc(N3CCOCC3)c3oc4ncccc4c3n2)c1 [PI-103] + Cc1nc(Nc2ncc(C(=O)Nc3c(C)cccc3Cl)s2)cc(N2CCN(CCO)CC2)n1 [dasatinib],461 nM,73.1 nM,386 nM,31.4 nM,322 nM,156 nM,389 nM,115 nM,0.0372,0.0069,0.111,0.0522,0.0121,0.116,0.0871,0.00638,1.84,1.43,2.06,1.2,1.63,1.57,1.86,1.49
Cc1cnc(Nc2ccc(N3CCN(C)CC3)cc2)nc1Nc1cccc(S(=O)(=O)NC(C)(C)C)c1 + Cc1nc(Nc2ncc(C(=O)Nc3c(C)cccc3Cl)s2)cc(N2CCN(CCO)CC2)n1 [dasatinib],878 nM and 719 nM,497 nM and 187 nM,4270 nM and 3210 nM,79.9 nM and 106 nM,271 nM and 152 nM,746 nM and 690 nM,336 nM and 309 nM,903 nM and 821 nM,0.0284 and 0.0197,0.0113 and 0.0115,0.176 and 0.14,0.00194 and 0.00321,0.00497 and 0.00392,,0.00138 and 0.00232,0.0085 and 0.0129,1.99 and 2,1.88 and 1.72,3.36 and 2.9,1.25 and 1.24,1.56 and 1.46,1.85 and 1.91,1.73 and 1.65,3.14 and 3
COc1cc(Nc2c(C#N)cnc3cc(OCCCN4CCN(C)CC4)c(OC)cc23)c(Cl)cc1Cl [Bosutinib (SKI-606)] + Cc1nc(Nc2ncc(C(=O)Nc3c(C)cccc3Cl)s2)cc(N2CCN(CCO)CC2)n1 [dasatinib],1070 nM,2190 nM,3350 nM,56.8 nM,501 nM,1330 nM,1020 nM,,0.105,0.0253,0.294,0.103,0.0492,0.199,0.0934,0.0097,2.03,2.37,2.84,1.45,1.85,2.24,2.26,2.22
Cc1ccc(C(=O)Nc2ccc(CN3CCN(C)CC3)c(C(F)(F)F)c2)cc1C#Cc1cnc2cccnn12 + Cc1nc(Nc2ncc(C(=O)Nc3c(C)cccc3Cl)s2)cc(N2CCN(CCO)CC2)n1 [dasatinib],624 nM,402 nM,935 nM,68.8 nM,127 nM,230 nM,390 nM,311 nM,,,,,,,,,,,,,,,,
CS(=O)(=O)O.O=C(Nc1cccc(Cl)c1)Nc1ncc(CCNc2ncnc3ccsc23)s1 [SNS-314] + Cc1nc(Nc2ncc(C(=O)Nc3c(C)cccc3Cl)s2)cc(N2CCN(CCO)CC2)n1 [dasatinib],155 nM,48.1 nM,,61.8 nM,41.5 nM,634 nM,3780 nM,6020 nM,0.217,0.123,0.442,0.144,0.107,0.259,0.362,0.372,1.74,1.54,2.61,1.48,1.38,1.97,2.41,3.06
CC(=O)Nc1cccc(-n2c(=O)n(C3CC3)c(=O)c3c(Nc4ccc(I)cc4F)n(C)c(=O)c(C)c32)c1 + Cc1nc(Nc2ncc(C(=O)Nc3c(C)cccc3Cl)s2)cc(N2CCN(CCO)CC2)n1 [dasatinib],217 nM,21.7 nM,,8.4 nM,54.2 nM,86.2 nM,78.7 nM,159 nM,0.196,0.321,0.306,0.216,0.0991,0.243,0.235,0.0585,1.68,1.48,1.96,1.2,1.29,1.58,1.58,1.88
C[C@@H](Oc1cc(-n2cnc3ccc(CN4CCN(C)CC4)cc32)sc1C(N)=O)c1ccccc1C(F)(F)F + Cc1nc(Nc2ncc(C(=O)Nc3c(C)cccc3Cl)s2)cc(N2CCN(CCO)CC2)n1 [dasatinib],31 nM,10.7 nM,,21.2 nM,38.1 nM,89.1 nM,265 nM,77.4 nM,0.0347,0.00468,0.384,0.0897,0.0912,0.155,0.171,0.00496,1.14,0.653,1.97,1.22,1.33,1.62,2.01,1.32
CCOc1cc2ncc(C#N)c(Nc3ccc(OCc4ccccn4)c(Cl)c3)c2cc1NC(=O)/C=C/CN(C)C [Neratinib (HKI-272)] + Cc1nc(Nc2ncc(C(=O)Nc3c(C)cccc3Cl)s2)cc(N2CCN(CCO)CC2)n1 [dasatinib],102 nM,611 nM,6990 nM,4.66 nM,114 nM,215 nM,74.2 nM,,0.0611,0.298,0.51,0.0762,0.0888,0.0625,0.228,0.0167,1.59,1.88,3.02,0.82,1.44,1.74,1.57,2.08
CCC(=O)N1CCN(c2ccc(-n3c(=O)ccc4cnc5ccc(-c6cnc7ccccc7c6)cc5c43)cc2C(F)(F)F)CC1 [Torin 1] + Cc1nc(Nc2ncc(C(=O)Nc3c(C)cccc3Cl)s2)cc(N2CCN(CCO)CC2)n1 [dasatinib],21.8 nM,17.4 nM,73.9 nM,4.88 nM,27.7 nM,26.6 nM,,77 nM,0.0737,0.0106,0.025,0.0484,0.0196,0.0936,0.0693,0.00689,1.06,0.988,1.53,0.722,0.983,1.16,1.13,1.5
Nc1ccc(-c2ccc3ncc4ccc(=O)n(-c5cccc(C(F)(F)F)c5)c4c3c2)cn1 [Torin 2] + Cc1nc(Nc2ncc(C(=O)Nc3c(C)cccc3Cl)s2)cc(N2CCN(CCO)CC2)n1 [dasatinib],11.2 nM,< 3 nM,22.6 nM,< 3 nM,12.3 nM,6.44 nM,,14.9 nM,0.0396,0.00374,0.0422,0.033,0.00828,0.0283,0.0129,0.00805,0.828,0.422,0.961,0.382,0.756,0.777,0.828,0.727
CCOc1ccn(-c2ccc(F)cc2)c(=O)c1C(=O)Nc1ccc(Oc2ccnc(N)c2Cl)c(F)c1 + Cc1nc(Nc2ncc(C(=O)Nc3c(C)cccc3Cl)s2)cc(N2CCN(CCO)CC2)n1 [dasatinib],> 10000 nM,1570 nM,> 10000 nM,642 nM,,> 10000 nM,> 10000 nM,> 10000 nM,0.495,0.35,0.61,0.247,0.118,0.528,0.634,0.695,2.36,1.85,2.83,1.66,1.92,2.27,2.43,3.54
COc1cc(Nc2ncc3c(n2)-c2ccc(Cl)cc2C(c2c(F)cccc2OC)=NC3)ccc1C(=O)O [MLN8237 (Alisertib)] + Cc1nc(Nc2ncc(C(=O)Nc3c(C)cccc3Cl)s2)cc(N2CCN(CCO)CC2)n1 [dasatinib],95.7 nM,60.2 nM,,25 nM,74.9 nM,331 nM,2740 nM,5320 nM,0.231,0.145,0.353,0.16,0.0592,0.353,0.392,0.374,1.61,1.44,2.41,1.37,1.41,1.89,2.39,3.06
CO[C@@H](C(=O)N1Cc2[nH]nc(NC(=O)c3ccc(N4CCN(C)CC4)cc3)c2C1)c1ccccc1 + Cc1nc(Nc2ncc(C(=O)Nc3c(C)cccc3Cl)s2)cc(N2CCN(CCO)CC2)n1 [dasatinib],2950 nM and 3100 nM,184 nM and 231 nM,1310 nM and 2720 nM,18.2 nM and 153 nM,170 nM and 198 nM,491 nM and 366 nM,1560 nM and 1030 nM,3120 nM and 3920 nM,0.346 and 0.337,,0.36 and 0.384,0.0933 and 0.0842,0.0301 and 0.0221,0.159 and 0.145,0.146 and 0.131,0.0249 and 0.0141,2.12 and 2.33,1.57 and 1.49,2.44 and 2.82,1.37 and 1.42,1.46,1.95 and 1.86,2.19 and 2.06,2.67 and 3.57
Cn1c(=O)c(F)c(Nc2ccc(I)cc2F)c2c(=O)n(C[C@@H](O)CO)cnc21 [TAK-733] + Cc1nc(Nc2ncc(C(=O)Nc3c(C)cccc3Cl)s2)cc(N2CCN(CCO)CC2)n1 [dasatinib],192 nM,452 nM,,< 3 nM,29.7 nM,82.5 nM,138 nM,200 nM,0.201,0.36,0.355,0.222,0.0816,0.192,0.199,0.0313,1.73,1.96,1.92,1.21,1.2,1.51,1.71,1.88
